In brackets after ≈: the same amount, converted by molar mass. Activity calls are given as the source filed them.

One data set relates to Vero. The experiment in a line: Cytotoxicity against African green monkey Vero cells after 72 hrs by MTT assay. It counts as cell-based. As to conditions: Chlorocebus sabaeus. For orientation: Tetrazolium assays rely on reduction of a dye to a coloured formazan, in cell work by metabolically active cells.
Data set [1] can be described thus: Selectivity index, ratio of IC50 for African green monkey Vero cells to MIC for Mycobacterium tuberculosis H37Rv ATCC 27294. It counts as toxicity, cell-based.
For data set [2], the system named is Mycobacterium tuberculosis. Nature of the data set: Antimycobacterial activity against Mycobacterium tuberculosis H37Rv ATCC 27294 after 5 days by microplate alamar blue assay. Format: functional. As to conditions: H37Rv ATCC 27294, 120 h.
Data set [3] concerns Escherichia coli. Nature of the data set: Antibacterial activity against Escherichia coli at 75 ug/ml after 18 to 24 hrs by disc diffusion method. Format: functional. To be noted: read-out: IZ. A general note: In agar diffusion tests the substance spreads into inoculated agar from a disc or well.
Data set [4] deals with Escherichia coli. Nature of the data set: Antibacterial activity against Escherichia coli at 50 ug/ml after 18 to 24 hrs by disc diffusion method. Format: functional. To be noted: read-out: IZ.
Data set [5] relates to Staphylococcus aureus. Nature of the data set: Antibacterial activity against Staphylococcus aureus at 75 ug/ml after 18 to 24 hrs by disc diffusion method. Format: functional. To be noted: for zone of inhibition at 75 µg/mL: read-out: IZ.
Data set [6] relates to Staphylococcus aureus. The experiment in a line: Antibacterial activity against Staphylococcus aureus at 50 ug/ml after 18 to 24 hrs by disc diffusion method. It counts as functional. As to conditions: for zone of inhibition at 50 µg/mL: read-out: IZ.
Data set [7] concerns Pseudomonas aeruginosa. Nature of the data set: Antibacterial activity against Pseudomonas aeruginosa at 75 ug/ml after 18 to 24 hrs by disc diffusion method. It counts as functional. To be noted: read-out: IZ.
The test system of data set [8] is Pseudomonas aeruginosa. The experiment in a line: Antibacterial activity against Pseudomonas aeruginosa at 50 ug/ml after 18 to 24 hrs by disc diffusion method. It counts as functional. As to conditions: read-out: IZ.

With `N=c1sc(-c2ccc(F)cc2)nn1CC(=O)N1c2ccccc2Sc2ccccc21`, in the data set with Vero, the IC50 (usually the concentration needed to halve the response being measured) was 247 µg/mL (≈ 568 µM). Moreover, the selectivity ratio in [1] was determined as 79.1. Also, inhibition of growth in [2] (MIC) required 3.12 µg/mL (≈ 7.19 µM). Besides, the zone of inhibition at 75 µg/mL in the data set on Escherichia coli [3] amounted to 11 mm; in the data set on Staphylococcus aureus [5] it was 8 mm; in the data set on Pseudomonas aeruginosa [7], 12 mm. Further, the zone of inhibition at 50 µg/mL came out at 8 mm with Escherichia coli [4], 5 mm with Staphylococcus aureus [6] and 8 mm with Pseudomonas aeruginosa [8].

Turning to `COc1ccc(-c2nn(CC(=O)N3c4ccccc4Sc4ccc(Cl)cc43)c(=N)s2)cc1OC`, in data set [2], 50 µg/mL (≈ 97.8 µM) was the least that counted as inhibitory (MIC). Moreover, the zone of inhibition at 75 µg/mL was determined as 8 mm in the data set on Escherichia coli [3], 8 mm with Staphylococcus aureus [5] and 6 mm in the data set on Pseudomonas aeruginosa [7]. Besides, the results for the zone of inhibition at 50 µg/mL in the data set with Escherichia coli [4], in the data set with Staphylococcus aureus [6] and in the data set with Pseudomonas aeruginosa [8] were 4 mm, 6 mm and 4 mm, respectively.

With `N=c1sc(-c2cccs2)nn1CC(=O)N1c2ccccc2Sc2ccc(C(F)(F)F)cc21`, in [2], it took 50 µg/mL (≈ 102 µM) to inhibit growth (MIC). The zone of inhibition at 75 µg/mL worked out at 10 mm in the data set with Escherichia coli [3], 8 mm in the data set on Staphylococcus aureus [5] and 12 mm in the data set on Pseudomonas aeruginosa [7]. Also, the zone of inhibition at 50 µg/mL in the data set on Escherichia coli [4] is 8 mm; with Staphylococcus aureus [6], 5 mm; in the data set on Pseudomonas aeruginosa [8], 8 mm.

Molecule `Cc1ccc(-c2nn(CC(=O)N3c4ccccc4Sc4ccccc43)c(=N)s2)cc1` had an IC50 in the data set on Vero of 215 µg/mL (≈ 499 µM). Besides, the selectivity ratio in data set [1] amounted to 269. In data set [2], the lowest concentration to inhibit growth (MIC) was 0.8 µg/mL (≈ 1.86 µM). The zone of inhibition at 75 µg/mL in the data set on Escherichia coli [3] came out at 27 mm; in the data set with Staphylococcus aureus [5], 21 mm; in the data set with Pseudomonas aeruginosa [7], 11 mm. Also, the figures for the zone of inhibition at 50 µg/mL in the data set with Escherichia coli [4], with Staphylococcus aureus [6] and in the data set on Pseudomonas aeruginosa [8] were 24 mm, 16 mm and 9 mm, respectively.

Molecule `Cc1nn(CC(=O)N2c3ccccc3Sc3ccc(Cl)cc32)c(=N)s1` had an IC50 in the data set with Vero of 470 µg/mL (≈ 1210 µM). The selectivity ratio in [1] came to 294. The MIC (commonly the smallest concentration in the dilution series that meets the test's criterion for growth inhibition) in [2] stood at 1.6 µg/mL (≈ 4.11 µM). Besides, the zone of inhibition at 75 µg/mL turned out to be 16 mm in the data set on Escherichia coli [3], 13 mm in the data set with Staphylococcus aureus [5] and 13 mm in the data set with Pseudomonas aeruginosa [7]. The zone of inhibition at 50 µg/mL with Escherichia coli [4] is 14 mm; in the data set on Staphylococcus aureus [6], 10 mm; in the data set on Pseudomonas aeruginosa [8] it was 9 mm.

With `CCCc1nn(CC(=O)N2c3ccccc3Sc3ccc(Cl)cc32)c(=N)s1`, 245 µg/mL (≈ 588 µM) corresponded to half-maximal inhibition in the data set on Vero (IC50). Moreover, the selectivity ratio in data set [1] worked out at 306. Also, the lowest concentration to inhibit growth in data set [2] (MIC) was 0.8 µg/mL (≈ 1.92 µM). The zone of inhibition at 75 µg/mL in the data set on Escherichia coli [3] was 12 mm; with Staphylococcus aureus [5], 10 mm; in the data set with Pseudomonas aeruginosa [7], 12 mm. Further, the zone of inhibition at 50 µg/mL in the data set with Escherichia coli [4] was determined as 8 mm; in the data set with Staphylococcus aureus [6], 8 mm; in the data set on Pseudomonas aeruginosa [8], 10 mm.

In the data set on Vero, `N=c1sc(-c2ccc(Cl)cc2)nn1CC(=O)N1c2ccccc2Sc2ccc(Cl)cc21` returned an IC50 of 757 µg/mL (≈ 1560 µM). In data set [1], the selectivity ratio came out at 473. This molecule also displayed an MIC in data set [2] of 1.6 µg/mL (≈ 3.3 µM). Moreover, the figures for the zone of inhibition at 75 µg/mL in the data set with Escherichia coli [3], in the data set with Staphylococcus aureus [5] and with Pseudomonas aeruginosa [7] were 15 mm, 17 mm and 20 mm, respectively. Further, the figures for the zone of inhibition at 50 µg/mL in the data set with Escherichia coli [4], in the data set with Staphylococcus aureus [6] and in the data set on Pseudomonas aeruginosa [8] were 12 mm, 15 mm and 15 mm, respectively.

`Cc1ccc(-c2nn(CC(=O)N3c4ccccc4Sc4ccc(Cl)cc43)c(=N)s2)cc1` came in with a minimum inhibitory concentration (MIC) in data set [2] of 50 µg/mL (≈ 108 µM). Besides, the results for the zone of inhibition at 75 µg/mL in the data set on Escherichia coli [3], with Staphylococcus aureus [5] and in the data set with Pseudomonas aeruginosa [7] were 9 mm, 12 mm and 7 mm, respectively. Besides, the zone of inhibition at 50 µg/mL with Escherichia coli [4] is 7 mm; in the data set on Staphylococcus aureus [6], 10 mm; in the data set with Pseudomonas aeruginosa [8], 4 mm.

With `N=c1sc(-c2cccs2)nn1CC(=O)N1c2ccccc2Sc2ccccc21`, the minimum inhibitory concentration (MIC) in [2] is 50 µg/mL (≈ 118 µM). Moreover, the values for the zone of inhibition at 75 µg/mL in the data set on Escherichia coli [3] and in the data set on Pseudomonas aeruginosa [7] were 7 mm and 4 mm, respectively. For the same molecule, the results for the zone of inhibition at 50 µg/mL in the data set on Escherichia coli [4] and with Pseudomonas aeruginosa [8] were 6 mm and 2 mm, respectively. The “inhibition zone (IZ)” value in the data set with Staphylococcus aureus [5] and in the data set on Staphylococcus aureus [6] was “inactive” each time.

Regarding `CN[C@@H]1[C@H](O[C@H]2[C@H](O[C@H]3[C@H](O)[C@@H](O)[C@H](N=C(N)N)[C@@H](O)[C@@H]3N=C(N)N)O[C@@H](C)[C@]2(O)C=O)O[C@@H](CO)[C@H](O)[C@H]1O` [STREPTOMYCIN], in data set [2], the MIC is 6.25 µg/mL (≈ 10.7 µM).

`COc1ccc(-c2nn(CC(=O)N3c4ccccc4Sc4ccc(C(F)(F)F)cc43)c(=N)s2)cc1OC` came in with an MIC in [2] of 50 µg/mL (≈ 91.8 µM). For the same molecule, the results for the zone of inhibition at 75 µg/mL in the data set on Escherichia coli [3], in the data set on Staphylococcus aureus [5] and with Pseudomonas aeruginosa [7] were 10 mm, 7 mm and 9 mm, respectively. The zone of inhibition at 50 µg/mL with Escherichia coli [4] came out at 8 mm; in the data set on Staphylococcus aureus [6] it was 4 mm; with Pseudomonas aeruginosa [8], 6 mm.

In turn, `NNC(=O)c1ccncc1` [ISONIAZID] showed an MIC in data set [2] of 0.1 µg/mL (≈ 0.729 µM).

Regarding `Cc1ccc(-c2nn(CC(=O)N3c4ccccc4Sc4ccc(C(F)(F)F)cc43)c(=N)s2)cc1`, the MIC in data set [2] turned out to be 50 µg/mL (≈ 100 µM). Besides, the zone of inhibition at 75 µg/mL in the data set with Escherichia coli [3] came to 13 mm; with Staphylococcus aureus [5] it was 11 mm; in the data set with Pseudomonas aeruginosa [7] it was 9 mm. Besides, the zone of inhibition at 50 µg/mL came out at 11 mm with Escherichia coli [4], 9 mm in the data set on Staphylococcus aureus [6] and 6 mm in the data set with Pseudomonas aeruginosa [8].

Turning to `CC[C@@H](CO)NCCN[C@@H](CC)CO` [ETHAMBUTOL], in data set [2], it took 3.12 µg/mL (≈ 15.3 µM) to inhibit growth (MIC).

The molecule `N=c1sc(-c2ccc(Cl)cc2)nn1CC(=O)N1c2ccccc2Sc2ccccc21` yielded an MIC in data set [2] of 50 µg/mL (≈ 111 µM). Also, the zone of inhibition at 75 µg/mL in the data set on Escherichia coli [3] is 10 mm; with Staphylococcus aureus [5] it was 9 mm; with Pseudomonas aeruginosa [7], 10 mm. The zone of inhibition at 50 µg/mL in the data set with Escherichia coli [4] is 8 mm; in the data set with Staphylococcus aureus [6] it was 7 mm; in the data set on Pseudomonas aeruginosa [8] it was 7 mm.

In the case of `COc1ccc(-c2nn(CC(=O)N3c4ccccc4Sc4ccccc43)c(=N)s2)cc1OC`, in data set [2], the lowest concentration to inhibit growth (MIC) was 12.5 µg/mL (≈ 26.2 µM). For the same molecule, the zone of inhibition at 75 µg/mL in the data set on Escherichia coli [3] came out at 16 mm; in the data set on Staphylococcus aureus [5], 21 mm; in the data set on Pseudomonas aeruginosa [7], 25 mm. The zone of inhibition at 50 µg/mL with Escherichia coli [4] amounted to 13 mm; in the data set with Staphylococcus aureus [6] it was 18 mm; in the data set on Pseudomonas aeruginosa [8], 20 mm.

In turn, `O=C(O)c1cn(C2CC2)c2cc(N3CCNCC3)c(F)cc2c1=O` [CIPROFLOXACIN] returned an MIC in data set [2] of 3.12 µg/mL (≈ 9.43 µM). In addition, the values for the zone of inhibition at 75 µg/mL in the data set with Escherichia coli [3], with Staphylococcus aureus [5] and in the data set with Pseudomonas aeruginosa [7] were 32 mm, 26 mm and 21 mm, respectively. Further, the zone of inhibition at 50 µg/mL in the data set on Escherichia coli [4] worked out at 27 mm; in the data set on Staphylococcus aureus [6] it was 21 mm; in the data set with Pseudomonas aeruginosa [8], 18 mm.

In data set [2], `N=c1sc(-c2cccs2)nn1CC(=O)N1c2ccccc2Sc2ccc(Cl)cc21` gave an MIC of 50 µg/mL (≈ 109 µM). In addition, the zone of inhibition at 75 µg/mL with Escherichia coli [3] is 8 mm; with Pseudomonas aeruginosa [7] it was 11 mm. The zone of inhibition at 50 µg/mL with Escherichia coli [4] was 4 mm; in the data set on Pseudomonas aeruginosa [8], 7 mm. For the same molecule, the “inhibition zone (IZ)” value with Staphylococcus aureus [5] and in the data set with Staphylococcus aureus [6] was “inactive” each time.

Consider `N=c1sc(-c2ccc(Cl)cc2)nn1CC(=O)N1c2ccccc2Sc2ccc(C(F)(F)F)cc21`, for which, in data set [2], the MIC was found to be 25 µg/mL (≈ 48.2 µM). The results for the zone of inhibition at 75 µg/mL in the data set with Escherichia coli [3], in the data set on Staphylococcus aureus [5] and in the data set with Pseudomonas aeruginosa [7] were 12 mm, 13 mm and 14 mm, respectively. Also, the zone of inhibition at 50 µg/mL turned out to be 11 mm in the data set with Escherichia coli [4], 11 mm in the data set with Staphylococcus aureus [6] and 9 mm in the data set on Pseudomonas aeruginosa [8].

Source of the values: ChEMBL document CHEMBL3739317, “Design of new phenothiazine-thiadiazole hybrids via molecular hybridization approach for the development of potent antitubercular agents” (Eur J Med Chem, 2015).
